Experimental data as given in patent US20220306695A1, “COMPSTATIN ANALOGUES AND THEIR MEDICAL USES” (priority 2019, published 2022).
Positions of bridges follow the written chain, without caps; N, C: chain ends. Non-standard residues stand in square brackets, D forms with d. Residues, ends and D or L forms follow the SMILES beside them. Trp(1-Me) = Cn1cc(C[C@H](N)C(=O)O)c2ccccc21; 2Nal = N[C@@H](Cc1ccc2ccccc2c1)C(=O)O; Sar = CNCC(=O)O

Test system: classical complement pathway
Experiment: In vitro haemolysis assay (inhibition of classical complement pathway)
Assay type: cell-based, human
Settings: Table 3; human serum, sensitized sheep red blood cells; read-out: IC50[nM], in vitro analysis of inhibition of hemolysis
Procedure: Method The in vitro effect of test compounds was assessed by measuring their inhibitory effect of the classical complement pathway in a haemolysis assay. Briefly, test compounds and reference compounds were dissolved in DMSO and diluted in Tris/Casein Assay Buffer (10 mM Tris, 145 mM NaCl, 0.5 mM MgCl2, 0.15 mM CaCl2, and 0.1% W/V Casein, adjusted to pH 7.4) as 9-point serial dilutions in a 96 well plate. Sensitized sheep red blood cells (RBC) coated with rabbit anti-sheep erythrocyte antiserum (Complement Technology, Inc., TX, USA) were washed in Tris/Casein Assay Buffer. 50 μL from each well of diluted compound was added to a 96-well plate containing 50 μL diluted human serum (Complement Technology, Inc., TX, USA) and incubated for 15 minutes at room temperature. The serum dilution factor was optimized for every serum batch to obtain 70-90% of maximal haemolysis using the protocol. Then 50 μL sensitized sheep red blood cells were added to all wells ([…] per well). After 30 minutes of incubation at 37° C. with gentle agitation, the reaction was stopped by addition of 50 μL Tris STOP Buffer per well (10 mM EDTA, 10 mM Tris, 145 mM NaCl adjusted to pH 7.4). The RBCs were then removed by centrifugation and the resulting supernatant measured for hemolysis by absorbance at 405 nm. The response was normalized relative to a positive and negative control (vehicle) to calculate the IC50 from the concentration response curve using the 4-parameter logistic (4PL) nonlinear model for curve fitting.

SMILES	IC50
CC[C@H](C)[C@@H]1NC(=O)[C@@H](NC(=O)[C@@H](NC(=O)[C@H](CCC(=O)O)NC(=O)CNC(=O)[C@H](CCC(=O)O)NC(C)=O)[C@@H](C)CC)CSSC[C@@H](C(=O)N[C@@H](CCC(=O)O)C(=O)NCC(=O)N[C@@H](CCC(=O)O)C(N)=O)NC(=O)[C@H](CCCNC(=N)N)NC(=O)[C@H](Cc2c[nH]cn2)NC(=O)[C@H](CCC(=O)O)NC(=O)CNC(=O)[C@H](Cc2c[nH]c3ccccc23)NC(=O)[C@H](CC(=O)O)NC(=O)[C@H](CCC(N)=O)NC(=O)[C@H](Cc2c[nH]c3ccccc23)NC1=O [Compound 35] (Ac-EGEICIWQDWGEHRCEGE-NH2; disulfide 5-15)	< 500 nM
CC[C@H](C)[C@@H]1NC(=O)[C@@H](NC(=O)[C@@H](NC(=O)[C@H](CCCCN)NC(=O)[C@H](CCC(=O)O)NC(=O)[C@H](CCCCN)NC(C)=O)[C@@H](C)CC)CSSC[C@@H](C(=O)N[C@H](C(=O)N[C@@H](CCC(=O)O)C(=O)N[C@@H](CCCCN)C(=O)N[C@@H](CCC(=O)O)C(N)=O)[C@@H](C)O)NC(=O)[C@H](CCCNC(=N)N)NC(=O)[C@H](Cc2c[nH]cn2)NC(=O)[C@H](CCC(=O)O)NC(=O)CNC(=O)[C@H](Cc2c[nH]c3ccccc23)NC(=O)[C@H](CC(=O)O)NC(=O)[C@H](CCC(N)=O)NC(=O)[C@H](Cc2c[nH]c3ccccc23)NC1=O [Compound 37] (Ac-KEKICIWQDWGEHRCTEKE-NH2; disulfide 5-15)	< 250 nM
CC[C@H](C)[C@H](NC(=O)CNC(=O)[C@H](CCCCN)NC(=O)[C@H](CCC(=O)O)NC(C)=O)C(=O)N[C@H]1CSSC[C@@H](C(=O)N[C@H](C(=O)N[C@@H](CCC(=O)O)C(=O)N[C@@H](CCCCN)C(=O)N2CCC[C@H]2C(N)=O)[C@@H](C)O)NC(=O)[C@H](CCCNC(=N)N)NC(=O)[C@H](Cc2c[nH]cn2)NC(=O)[C@H](CCC(=O)O)NC(=O)CNC(=O)[C@H](Cc2c[nH]c3ccccc23)NC(=O)[C@H](CC(=O)O)NC(=O)[C@H](CCC(N)=O)NC(=O)[C@H](Cc2c[nH]c3ccccc23)NC(=O)[C@H]([C@@H](C)CC)NC1=O [Compound 38] (Ac-EKGICIWQDWGEHRCTEKP-NH2; disulfide 5-15)	< 250 nM
CC[C@H](C)[C@H](NC(C)=O)C(=O)N[C@H]1CSSC[C@@H](C(=O)N[C@H](C(=O)N[C@@H](CCC(=O)O)C(=O)NCC(=O)N[C@@H](CCCCN)C(N)=O)[C@@H](C)O)NC(=O)[C@H](CCCNC(=N)N)NC(=O)[C@H](Cc2c[nH]cn2)NC(=O)[C@H](CCC(=O)O)NC(=O)CNC(=O)[C@H](Cc2c[nH]c3ccccc23)NC(=O)[C@H](CC(=O)O)NC(=O)[C@H](CCC(N)=O)NC(=O)[C@H](Cc2c[nH]c3ccccc23)NC(=O)[C@H]([C@@H](C)CC)NC1=O [Compound 39] (Ac-ICIWQDWGEHRCTEGK-NH2; disulfide 2-12)	< 100 nM
CC[C@H](C)[C@H](NC(=O)[C@H](C)NC(=O)[C@H](CO)NC(C)=O)C(=O)N[C@H]1CSSC[C@@H](C(=O)N[C@H](C(=O)N[C@@H](CCC(=O)O)C(=O)NCC(N)=O)[C@@H](C)O)NC(=O)[C@H](CCCNC(=N)N)NC(=O)[C@H](Cc2c[nH]cn2)NC(=O)[C@H](CCC(=O)O)NC(=O)CNC(=O)[C@H](Cc2c[nH]c3ccccc23)NC(=O)[C@H](CC(=O)O)NC(=O)[C@H](CCC(N)=O)NC(=O)[C@H](Cc2c[nH]c3ccccc23)NC(=O)[C@H]([C@@H](C)CC)NC1=O [Compound 42] (Ac-SAICIWQDWGEHRCTEG-NH2; disulfide 4-14)	< 250 nM
CC[C@H](C)[C@@H]1NC(=O)[C@@H](NC(=O)[C@H](Cc2ccccc2)NC(C)=O)CSSC[C@@H](C(=O)N[C@H](C(=O)NCC(=O)N[C@@H](C)C(=O)N[C@@H](CCC(=O)O)C(N)=O)[C@@H](C)O)NC(=O)[C@H](CCCNC(=N)N)NC(=O)[C@H](Cc2c[nH]cn2)NC(=O)[C@H](CCC(=O)O)NC(=O)CNC(=O)[C@H](Cc2c[nH]c3ccccc23)NC(=O)[C@H](CC(=O)O)NC(=O)[C@H](CCC(N)=O)NC(=O)[C@H](Cc2c[nH]c3ccccc23)NC1=O [Compound 43] (Ac-FCIWQDWGEHRCTGAE-NH2; disulfide 2-12)	< 100 nM
CC[C@H](C)[C@H](NC(=O)[C@H](C)NC(=O)[C@H](CO)NC(=O)[C@H](CO)NC(=O)[C@H](CCC(=O)O)NC(C)=O)C(=O)N[C@H]1CSSC[C@@H](C(=O)N[C@H](C(N)=O)[C@@H](C)O)NC(=O)[C@H](CCCNC(=N)N)NC(=O)[C@H](Cc2c[nH]cn2)NC(=O)[C@H](C)NC(=O)CNC(=O)[C@H](Cc2c[nH]c3ccccc23)NC(=O)[C@H](CC(=O)O)NC(=O)[C@H](CCC(N)=O)NC(=O)[C@H](Cc2c[nH]c3ccccc23)NC(=O)[C@H]([C@@H](C)CC)NC1=O [Compound 46] (Ac-ESSAICIWQDWGAHRCT-NH2; disulfide 6-16)	< 100 nM
CC[C@H](C)[C@H](NC(C)=O)C(=O)N[C@H]1CSSC[C@@H](C(=O)N[C@H](C(=O)NCC(=O)N[C@@H](C)C(=O)N[C@@H](CCC(=O)O)C(=O)N[C@@H](CO)C(N)=O)[C@@H](C)O)NC(=O)[C@H](CCCNC(=N)N)NC(=O)[C@H](Cc2c[nH]cn2)NC(=O)[C@H](C)NC(=O)CNC(=O)[C@H](Cc2c[nH]c3ccccc23)NC(=O)[C@H](CC(=O)O)NC(=O)[C@H](CCC(N)=O)NC(=O)[C@H](Cc2c[nH]c3ccccc23)NC(=O)[C@H]([C@@H](C)CC)NC1=O [Compound 47] (Ac-ICIWQDWGAHRCTGAES-NH2; disulfide 2-12)	< 100 nM
CC[C@H](C)[C@@H]1NC(=O)[C@@H](NC(=O)[C@H](Cc2ccccc2)NC(=O)[C@H](C)NC(=O)[C@H](CO)NC(=O)CNC(=O)[C@H](CCC(=O)O)NC(C)=O)CSSC[C@@H](C(=O)N[C@@H](CCC(=O)O)C(=O)NCC(=O)N[C@@H](CCC(=O)O)C(N)=O)NC(=O)[C@H](CCCNC(=N)N)NC(=O)[C@H](Cc2c[nH]cn2)NC(=O)[C@H](CCC(=O)O)NC(=O)CNC(=O)[C@H](Cc2c[nH]c3ccccc23)NC(=O)[C@H](CC(=O)O)NC(=O)[C@H](CCC(N)=O)NC(=O)[C@H](Cc2cn(C)c3ccccc23)NC1=O [Compound 58] (Ac-EGSAFCI[Trp(1-Me)]QDWGEHRCEGE-NH2; disulfide 6-16)	< 100 nM
CC[C@H](C)[C@@H]1NC(=O)[C@@H](NC(=O)[C@H](Cc2ccc(O)cc2)NC(=O)[C@H](C)NC(=O)[C@H](CO)NC(=O)CNC(=O)[C@H](CCC(=O)O)NC(C)=O)CSSC[C@@H](C(=O)N[C@H](C(=O)N[C@@H](CCC(=O)O)C(N)=O)[C@@H](C)O)NC(=O)[C@H](CCCNC(=N)N)NC(=O)[C@H](Cc2c[nH]cn2)NC(=O)[C@H](CCC(=O)O)NC(=O)CNC(=O)[C@H](Cc2c[nH]c3ccccc23)NC(=O)[C@H](CC(=O)O)NC(=O)[C@H](CCC(N)=O)NC(=O)[C@H](Cc2cn(C)c3ccccc23)NC1=O [Compound 59] (Ac-EGSAYCI[Trp(1-Me)]QDWGEHRCTE-NH2; disulfide 6-16)	< 100 nM
CC[C@H](C)[C@@H]1NC(=O)[C@@H](NC(=O)[C@H](Cc2ccccc2)NC(C)=O)CSSC[C@@H](C(=O)N[C@H](C(=O)NCC(=O)N[C@@H](C)C(=O)N[C@@H](CCC(=O)O)C(=O)N[C@@H](CO)C(N)=O)[C@@H](C)O)NC(=O)[C@H](CCCNC(=N)N)NC(=O)[C@H](Cc2c[nH]cn2)NC(=O)[C@H](CCC(=O)O)NC(=O)CNC(=O)[C@H](Cc2c[nH]c3ccccc23)NC(=O)[C@H](CC(=O)O)NC(=O)[C@H](CCC(N)=O)NC(=O)[C@H](Cc2ccc3ccccc3c2)NC1=O [Compound 64] (Ac-FCI[2Nal]QDWGEHRCTGAES-NH2; disulfide 2-12)	< 100 nM
CC[C@H](C)[C@@H]1NC(=O)[C@@H](NC(=O)[C@H](Cc2ccc(O)cc2)NC(C)=O)CSSC[C@@H](C(=O)N[C@H](C(=O)N[C@@H](CCC(=O)O)C(=O)N[C@@H](CO)C(=O)NCC(=O)N[C@@H](C)C(N)=O)[C@@H](C)O)NC(=O)[C@H](CCCNC(=N)N)NC(=O)[C@H](Cc2c[nH]cn2)NC(=O)[C@H](CCC(=O)O)NC(=O)CNC(=O)[C@H](Cc2c[nH]c3ccccc23)NC(=O)[C@H](CC(=O)O)NC(=O)[C@H](CCC(N)=O)NC(=O)[C@H](Cc2cn(C)c3ccccc23)NC1=O [Compound 69] (Ac-YCI[Trp(1-Me)]QDWGEHRCTESGA-NH2; disulfide 2-12)	< 100 nM
CC[C@H](C)[C@@H]1NC(=O)[C@@H](NC(=O)[C@H](Cc2ccc(O)cc2)NC(=O)[C@H](C)NC(=O)[C@H](CO)NC(=O)CNC(=O)[C@H](CCC(=O)O)NC(C)=O)CSSC[C@@H](C(=O)N(C)CC(=O)N[C@@H](CCC(=O)O)C(N)=O)NC(=O)[C@H](CCCNC(=N)N)NC(=O)[C@H](Cc2c[nH]cn2)NC(=O)[C@H](CCC(=O)O)NC(=O)CNC(=O)[C@H](Cc2c[nH]c3ccccc23)NC(=O)[C@H](CCC(=O)O)NC(=O)[C@H](CCC(N)=O)NC(=O)[C@H](Cc2cn(C)c3ccccc23)NC1=O [Compound 70] (Ac-EGSAYCI[Trp(1-Me)]QEWGEHRC[Sar]E-NH2; disulfide 6-16)	< 100 nM
CC[C@H](C)[C@@H]1NC(=O)[C@@H](NC(=O)[C@H](Cc2ccc(O)cc2)NC(=O)[C@H](CCC(=O)O)NC(=O)[C@H](CO)NC(C)=O)CSSC[C@@H](C(=O)N(C)CC(=O)N[C@@H](CCC(=O)O)C(=O)N[C@@H](C)C(N)=O)NC(=O)[C@H](CCCNC(=N)N)NC(=O)[C@H](Cc2c[nH]cn2)NC(=O)[C@H](CCC(=O)O)NC(=O)CNC(=O)[C@H](Cc2c[nH]c3ccccc23)NC(=O)[C@H](CC(=O)O)NC(=O)[C@H](CCC(N)=O)NC(=O)[C@H](Cc2cn(C)c3ccccc23)NC1=O [Compound 71] (Ac-SEYCI[Trp(1-Me)]QDWGEHRC[Sar]EA-NH2; disulfide 4-14)	< 100 nM
